Data on 20 compounds can be found in patent US12391670B2, “Functionalized aminotriazines” (LEADXPRO AG, priority 2018, dated 2025).

SMILES strings stand for the structures. Like-named read-outs stand apart in the source and are kept apart here.

Assay [1] has as its target A2B receptors endogenously expressed in HEK293 cells (Homo sapiens (Human), UniProt P29275). Briefly: cAMP assay (a), HEK293 cells with A2B receptors endogenously expressed. Type of assay: cell-based. To be noted: stimulated with 5 μM NECA. The protocol:
(§1) Two assays have been employed, one using HEK293 with A2B receptors endogenously expressed (named cAMP assay (a) in the following) and a second one using HEK293 cells impressing recombinant human A2B receptors (named cAMP assay (b) in the following)
Real-time cAMP-assays in live cells were performed in HEK293 cells stably expressing the EPAC-sensor (I. Vedel, et al., 2015, J. Biomol. Screen. 20, 849-857).
In order to test for cAMP inhibition by preferred compounds of formula I and antagonists, respectively, from this invention, endogenous A2A and A2B expression in above cell lines was exploited. To run the assay, cells were incubated in 80 μl assay buffer for 15 minutes at room temperature. The assay buffer was composed of Hanks Balanced Salt Solution (Gibco) with 20 mM HEPES, pH 7.4 and […] adenosine-deaminase. All cAMP assays were run at room temperature using a PHERAstar FSX plate reader. The FRET donor (mCerulean) was excited at 430 nm. Fluorescence emission was measured at 480 nm and 530 nm for 65 minutes (cycle time 1.45 min). Prior to stimulation fluorescence was measured for 10 min (baseline). Subsequently cells were stimulated with 5 μM NECA (5′-(N-Ethylcarboxamido)adenosine; Tocris, Cat.-No:35920-39-9). Sharply 10.15 min after stimulation the compounds were added at increasing concentrations (between 0 and 200 μM) and fluorescence was recorded for 40 min. Each compound concentration was measured in duplicates.

For the next assay, the target named is human A2A receptor (Homo sapiens (Human), UniProt P29274). Briefly: Radioligand binding competition assay, [3H]-NECA, membranes from HEK293 cells transfected with human A2A receptor. To be noted: radioligand binding. The protocol:
(§2) For all four adenosine receptors (A1, A2A, A2B and A3) filtration binding assay was performed. Radioligand binding competition assay was done in duplicates in the wells of a 96-well plate (Master Block, Greiner, 786201) containing binding buffer, receptor membrane extracts, a fixed concentration of tracer and test compound at increasing concentrations. In order to eliminate effect of buffer components, binding buffer was the same for all four receptors and contained: 50 mM Tris-HCl pH 7.4, 5 mM MgCl2, 1 mM EDTA, 150 mM NaCl, 0.1% Na-azide, and 5 U/ml adenosine-deaminase. Nonspecific binding was determined by co-incubation with 200-fold excess of cold competitor. In all radioligand binding experiments, the samples were incubated in a final volume of 0.1 ml for 60 minutes at 25° C. and then filtered over Unifilter plates (Perkin Elmer) pre-treated for 2 hours to limit tracer non-specific binding. Filters were washed five times with 0.5 ml of ice-cold washing buffer (50 mM Tris-HCl pH 7.4, 5 mM MgCl2, 1 mM EDTA) and 50 μl of Microscint 20 (Perkin Elmer) were added to each filter. The plates are incubated 15 min at room temperature on an orbital shaker and then counted with a TopCount™ for 1 min/well.
For A2A receptor the assay was performed with [^3H]-NECA and membranes from HEK293 cells transfected with human A2A receptor (Euroscreen FAST-002B).

The target of assay [2] is T1, human A2B receptor (Homo sapiens (Human), UniProt P29275). Briefly: Radioligand binding competition assay, [3H]-DPCPX, membranes from HEK293 cells transfected with human A2B receptor. The protocol: as §2
For A2B, the assay was carried with [^3H]-DPCPX and membranes prepared from HEK293 cells transfected with human A2B receptor (Euroscreen FAST-003B).

The target in assay [3] is T1, human A2B receptor. The assay is described as follows: cAMP assay (b), HEK293 cells expressing recombinant human A2B receptor. The format is cell-based. The note with it: reference agonist at EC80, read-out: cAMP pIC50 (converted). The protocol:
as §1
Dose response curves were performed in parallel with the reference compounds. 12 μl of cells were mixed with 6 μl of the test compound at increasing concentrations and then incubated 10 min. Thereafter 6 μl of the reference agonist was added at a final concentration corresponding to the historical EC80. The plates were then incubated for 30 min at room temperature. After addition of the lysis buffer and 1 hour incubation, cAMP concentrations were estimated, according to the manufacturer specification, with the HTRF kit.
On the technique in general: cAMP levels reflect the balance of adenylyl cyclase and phosphodiesterase activity.

Another assay concerns the target human A1 receptor (Homo sapiens (Human), UniProt P30542). Briefly: Radioligand binding competition assay, [3H]-DPCPX, membranes from CHO-K1 cells transfected with human A1 receptor. The protocol:
as §2
For A1 receptor the assay was performed with [^3H]-DPCPX and membranes from CHO-K1 cells transfected with human A1 receptor (Euroscreen FAST-00B).

Setting [4] is: read-out: cAMP pIC50 (converted).

T1 sequence (P29275 whole entry): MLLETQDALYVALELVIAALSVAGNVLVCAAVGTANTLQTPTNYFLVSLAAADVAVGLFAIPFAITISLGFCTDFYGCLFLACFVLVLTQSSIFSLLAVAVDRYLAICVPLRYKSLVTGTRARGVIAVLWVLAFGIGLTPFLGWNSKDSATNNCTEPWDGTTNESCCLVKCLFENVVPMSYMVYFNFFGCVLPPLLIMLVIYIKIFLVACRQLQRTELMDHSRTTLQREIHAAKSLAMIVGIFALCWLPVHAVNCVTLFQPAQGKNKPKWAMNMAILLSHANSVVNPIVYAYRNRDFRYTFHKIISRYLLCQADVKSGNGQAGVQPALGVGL
A2B receptors endogenously expressed in HEK293 cells, sequence (P29275 whole entry): as above
human A2A receptor, sequence (P29274 whole entry): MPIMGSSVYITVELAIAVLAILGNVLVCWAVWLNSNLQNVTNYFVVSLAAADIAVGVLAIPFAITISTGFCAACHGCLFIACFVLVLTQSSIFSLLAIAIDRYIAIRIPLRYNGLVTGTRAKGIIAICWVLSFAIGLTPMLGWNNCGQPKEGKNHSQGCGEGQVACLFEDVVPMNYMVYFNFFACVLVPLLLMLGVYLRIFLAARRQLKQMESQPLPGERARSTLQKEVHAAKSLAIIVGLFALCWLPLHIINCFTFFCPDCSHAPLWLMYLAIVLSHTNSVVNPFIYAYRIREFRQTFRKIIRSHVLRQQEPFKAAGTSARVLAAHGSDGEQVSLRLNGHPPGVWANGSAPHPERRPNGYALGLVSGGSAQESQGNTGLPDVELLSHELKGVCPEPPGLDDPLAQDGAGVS
human A1 receptor, sequence (P30542 whole entry): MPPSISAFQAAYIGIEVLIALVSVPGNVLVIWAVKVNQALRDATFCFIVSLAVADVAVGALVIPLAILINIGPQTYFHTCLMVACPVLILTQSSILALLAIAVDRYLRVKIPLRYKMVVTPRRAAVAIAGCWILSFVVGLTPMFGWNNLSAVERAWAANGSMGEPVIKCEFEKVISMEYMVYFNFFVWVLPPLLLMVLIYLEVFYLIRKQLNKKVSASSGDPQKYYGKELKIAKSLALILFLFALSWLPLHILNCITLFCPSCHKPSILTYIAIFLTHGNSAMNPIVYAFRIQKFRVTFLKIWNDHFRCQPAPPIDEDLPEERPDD

`Fc1cnccc1-c1nnc(Nc2nccs2)nc1-c1cccnc1` [Example 3, N-(6-(3-fluoropyridin-4-yl)-5-(pyridin-3-yl)-1,2,4-triazin-3-yl)thiazol-2-amine]: the IC50 in assay [1] is 2 µM; in assay [1] (setting [4]), 2 µM; on human A2B receptor [2] it was 1250 nM. Further, the “Human A2A Receptor pKi” value on human A2A receptor was less than 4.70. The “Human A2B Receptor pKi” value on human A2B receptor [2] turned out to be 5.95.
`Cc1nsc(Nc2nnc(-c3ccncc3F)c(-c3cccnc3)n2)n1` [Example 5, N-(6-(3-fluoropyridin-4-yl)-5-(pyridin-3-yl)-1,2,4-triazin-3-yl)-3-methyl-1,2,4-thiadiazol-5-amine]: the “Human A2A Receptor pKi” value at human A2A receptor is on record as less than 4.70. For the same compound, at human A2B receptor [2], the “Human A2B Receptor pKi” value came to 5.38 and the IC50 stood at 4660 nM.
Turning to `Cc1nnc(Nc2nnc(-c3ccncc3F)c(-c3cccnc3)n2)s1` [Example 6, N-(6-(3-fluoropyridin-4-yl)-5-(pyridin-3-yl)-1,2,4-triazin-3-yl)-5-methyl-1,3,4-thiadiazol-2-amine], the IC50 is 3.98 µM in assay [1], 3.98 µM in assay [1] (setting [4]) and 4770 nM at human A2B receptor [2]. At human A2A receptor, the “Human A2A Receptor pKi” value is less than 4.70. In addition, the “Human A2B Receptor pKi” value at human A2B receptor [2] is given as 5.37.
Consider `CNC(=O)Nc1nnc(-c2ccncc2F)c(-c2cccnc2)n1` [Example 7, 1-(6-(3-fluoropyridin-4-yl)-5-(pyridin-3-yl)-1,2,4-triazin-3-yl)-3-methylurea], for which the IC50 in assay [1] is 6.92 µM; in assay [1] (setting [4]) it was 6.92 µM; on human A2B receptor [2], 6320 nM. The “Human A2A Receptor pKi” value at human A2A receptor is recorded as less than 4.70. For the same compound, at human A2B receptor [2], the “Human A2B Receptor pKi” value came to 5.25.
Consider `Fc1ccccc1-c1nc(Nc2nc(Cl)cs2)nnc1-c1ccnc(C(F)(F)F)c1` [Example 10, 4-chloro-N-(5-(2-fluorophenyl)-6-(2-(trifluoromethyl)pyridin-4-yl)-1,2,4-triazin-3-yl)thiazol-2-amine], for which the “Human A2A Receptor pKi” value at human A2A receptor is given as less than 4.70. Moreover, on human A2B receptor [2], the “Human A2B Receptor pKi” value was determined as 6.02 and the IC50 was 1070 nM.
Regarding `Fc1cccc(Nc2nnc(-c3ccncc3F)c(-c3ccccc3F)n2)c1` [Example 12, 5-(2-fluorophenyl)-N-(3-fluorophenyl)-6-(3-fluoropyridin-4-yl)-1,2,4-triazin-3-amine], on human A2A receptor, the “Human A2A Receptor pKi” value worked out at 4.49 and the IC50 amounted to 32.6 µM. Moreover, at human A2B receptor [2], the “Human A2B Receptor pKi” value was 6.42 and the IC50 turned out to be 420 nM.
In the case of `Cc1nsc(Nc2nnc(-c3ccncc3F)c(-c3ccccc3F)n2)n1` [Example 13, N-(5-(2-fluorophenyl)-6-(3-fluoropyridin-4-yl)-1,2,4-triazin-3-yl)-3-methyl-1,2,4-thiadiazol-5-amine], on human A2A receptor, the “Human A2A Receptor pKi” value is reported as less than 4.70. Besides, on human A2B receptor [2], the “Human A2B Receptor pKi” value worked out at 5.98 and the IC50 is 1170 nM.
As to `Cc1cnc(-c2nc(Nc3cccc(F)c3)nnc2-c2ccncc2F)o1` [Example 17, N-(3-fluorophenyl)-6-(3-fluoropyridin-4-yl)-5-(5-methyloxazol-2-yl)-1,2,4-triazin-3-amine], the “Human A2A Receptor pKi” value at human A2A receptor was 5.8. At human A2B receptor [3], the IC50 was 324 nM. Further, at human A2B receptor [2], the “Human A2B Receptor pKi” value is 7.17.
Turning to `CCc1n[nH]c(Nc2nnc(-c3ccncc3F)c(-c3ccccc3F)n2)n1` [Example 18, N-(3-ethyl-1H-1,2,4-triazol-5-yl)-5-(2-fluorophenyl)-6-(3-fluoro-4-pyridyl)-1,2,4-triazin-3-amine], the “Human A1 Receptor pKi” value at human A1 receptor amounted to 5.00. For the same compound, the “Human A2B Receptor pKi” value at human A2B receptor [2] turned out to be 6.68.
With `Cc1ccc(Nc2nnc(-c3ccncc3F)c(-c3ccccc3F)n2)cn1` [Example 21, 5-(2-fluorophenyl)-6-(3-fluoro-4-pyridyl)-N-(6-methyl-3-pyridyl)-1,2,4-triazin-3-amine], the “Human A2A Receptor pKi” value on human A2A receptor was 6. For the same compound, the IC50 at human A2B receptor [3] was 66.1 nM. The “Human A2B Receptor pKi” value at human A2B receptor [2] stood at 7.81.
On to `OCc1ccc(Nc2nnc(-c3ccncc3F)c(-c3ccccc3F)n2)cn1` [Example 22, [5-[[5-(2-fluorophenyl)-6-(3-fluoro-4-pyridyl)-1,2,4-triazin-3-yl]amino]-2-pyridyl]methanol], for which, on human A2A receptor, the “Human A2A Receptor pKi” value was found to be 4.7. The IC50 on human A2B receptor [3] is 29.5 nM. Besides, the “Human A2B Receptor pKi” value on human A2B receptor [2] came to 7.95.
For `COc1ccc(Nc2nnc(-c3ccncc3F)c(-c3ccccc3F)n2)cn1` [Example 23, 5-(2-fluorophenyl)-6-(3-fluoro-4-pyridyl)-N-(6-methoxy-3-pyridyl)-1,2,4-triazin-3-amine], in that order: 6.57, 105 nM and 7.43.
Regarding `Fc1cnccc1-c1nnc(Nc2ccc(C(F)(F)F)nc2)nc1-c1ccccc1F` [Example 24, 5-(2-fluorophenyl)-6-(3-fluoro-4-pyridyl)-N-[6-(trifluoromethyl)-3-pyridyl]-1,2,4-triazin-3-amine], the IC50 on human A2B receptor [3] is 107 nM. Moreover, at human A1 receptor, the “Human A1 Receptor pKi” value is recorded as 5.58. In addition, the “Human A2B Receptor pKi” value at human A2B receptor [2] was found to be 7.33.
Take `COc1ccc(NC(=O)Nc2nnc(-c3ccncc3F)c(-c3ccccc3F)n2)cc1` [Example 29, 1-[5-(2-fluorophenyl)-6-(3-fluoro-4-pyridyl)-1,2,4-triazin-3-yl]-3-(4-methoxyphenyl)urea]: at human A2B receptor [2], the “Human A2B Receptor pKi” value turned out to be 6.94.
Take `O=C(Nc1nnc(-c2ccncc2F)c(-c2ccccc2F)n1)NC1CC1` [Example 35, 1-cyclopropyl-3-[5-(2-fluorophenyl)-6-(3-fluoro-4-pyridyl)-1,2,4-triazin-3-yl]urea]: on human A2B receptor [2], the “Human A2B Receptor pKi” value is reported as 6.55.
Consider `Fc1cnccc1-c1nnc(Nc2ccc(OCC(F)F)nc2)nc1-c1ccccc1F` [Example 36, N-[6-(2,2-difluoroethoxy)pyridin-3-yl]-5-(2-fluorophenyl)-6-(3-fluoropyridin-4-yl)-1,2,4-triazin-3-amine], for which the “Human A2A Receptor pKi” value at human A2A receptor was 6.56. Also, the “Human A2B Receptor pKi” value at human A2B receptor [2] is on record as 7.42.
For the compound `OCc1ccc(Nc2nnc(-c3ccncc3F)c(-c3ccccc3F)n2)cc1F` [Example 37, (2-fluoro-4-{[5-(2-fluorophenyl)-6-(3-fluoropyridin-4-yl)-1,2,4-triazin-3-yl]amino}phenyl)methanol], the “Human A2A Receptor pKi” value at human A2A receptor was 6.1. Moreover, on human A2B receptor [2], the “Human A2B Receptor pKi” value stood at 7.84.
Turning to `CC(O)c1ccc(Nc2nnc(-c3ccncc3F)c(-c3ccccc3F)n2)cn1` (centres unmarked) [Example 40, 1-(5-{[5-(2-fluorophenyl)-6-(3-fluoropyridin-4-yl)-1,2,4-triazin-3-yl]amino}pyridin-2-yl)ethan-1-ol], the “Human A2A Receptor pKi” value on human A2A receptor is on record as 6.25. Besides, the “Human A2B Receptor pKi” value on human A2B receptor [2] is 7.89.
On to `Fc1cnccc1-c1nnc(Nc2ccc(C3CC3)nc2)nc1-c1ccccc1F` [Example 44, N-(6-cyclopropylpyridin-3-yl)-5-(2-fluorophenyl)-6-(3-fluoropyridin-4-yl)-1,2,4-triazin-3-amine], for which the “Human A2A Receptor pKi” value at human A2A receptor is recorded as 6.00. Further, on human A2B receptor [2], the “Human A2B Receptor pKi” value is 7.58.
For `CC(C)(C)c1n[nH]c(Nc2nnc(-c3ccncc3F)c(-c3ccccc3F)n2)n1` [Example 46, N-(3-tert-butyl-1H-1,2,4-triazol-5-yl)-5-(2-fluorophenyl)-6-(3-fluoropyridin-4-yl)-1,2,4-triazin-3-amine], the “Human A2B Receptor pKi” value at human A2B receptor [2] turned out to be 7.01.
